According to ChEMBL document CHEMBL1201862, “PubChem BioAssay data set” (2004):
The source made the active and inactive calls.

Experiments:
[1] = EF1alpha-driven Renilla reporter with control 3'UTR suppression – Clone20-Shn3RL cells, dual-Glo, cherry-pick, set 2, counter-screen for Shn3 3'UTR targeting project, dose response (AID 720724); assay type: functional, cell-based; conditions: Dual-Go Shn3RL
[2] = loss of viability in HepG2 cells – cell-based, CellTiter-Glo, cherry-picked, cytotoxicity control for Shn3 inhibitor project, dose response (AID 624134); assay type: functional
[3] = Shn3 3'UTR reporter signal decrease – cell-based, Clone20 osteoblasts, firefly luciferase, cherry-pick, set 2, Schnurri-3 inhibitor project, dose response (AID 720490); assay type: functional;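 also: actives lower the luminescence signal as inhibitors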
[4] = reduction of Shn3 3'UTR-driven luciferase in osteoblasts – cell-based, Clone20 osteoblasts, firefly luciferase, cherry-picked, dose response (AID 624132); assay type: functional;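 also: firefly luciferase luminescence from reporter carrying the Shn3 3'UTR in osteoblasts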
[5] = non-specific 3'UTR reporter inhibition in Clone20-Shn3RL – cell-based, Renilla luciferase, cherry-picked, counter-screen for Shn3 inhibitor project, dose response (AID 624133); assay type: functional
HEK293 = experiment: EBV LMP1 TES2 canonical NF-kB signalling blockers – cell-based, HEK293, luciferase, cherry-pick, dose response (AID 588343); assay type: functional; conditions: Homo sapiens
Interleukin-8 [6] = target: T1, Interleukin-8 (Homo sapiens, UniProt P10145); experiment: Dose Response confirmation of uHTS small molecule hits for cystic fibrosis induced NFkb Inhibitors in a PAF-induced IL8 counterscreen.; assay type: functional; conditions: read-out: IC50_Mean
Interleukin-8 [7] = target: T1, Interleukin-8; experiment: Dose Response confirmation of uHTS small molecule hits for cystic fibrosis induced NFkb Inhibitors in a TNFa-induced IL8 counterscreen.; assay type: functional; conditions: read-out: IC50_Mean
[8] = IC50 of Artemis nuclease activity blockers – biochemical, fluorescence intensity, dose response (AID 720701); assay type: functional;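 also: Artemis endonuclease enzyme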
Leucine aminopeptidase = target: T2, Leucine aminopeptidase (Plasmodium falciparum 3D7, UniProt Q8IL11); experiment: P. falciparum M17LAP inhibitors, primary screen, biochemical, fluorogenic H-Leu-NHMec substrate, 1536-well (AID 1619); assay type: functional
T2 sequence (Q8IL11 whole entry): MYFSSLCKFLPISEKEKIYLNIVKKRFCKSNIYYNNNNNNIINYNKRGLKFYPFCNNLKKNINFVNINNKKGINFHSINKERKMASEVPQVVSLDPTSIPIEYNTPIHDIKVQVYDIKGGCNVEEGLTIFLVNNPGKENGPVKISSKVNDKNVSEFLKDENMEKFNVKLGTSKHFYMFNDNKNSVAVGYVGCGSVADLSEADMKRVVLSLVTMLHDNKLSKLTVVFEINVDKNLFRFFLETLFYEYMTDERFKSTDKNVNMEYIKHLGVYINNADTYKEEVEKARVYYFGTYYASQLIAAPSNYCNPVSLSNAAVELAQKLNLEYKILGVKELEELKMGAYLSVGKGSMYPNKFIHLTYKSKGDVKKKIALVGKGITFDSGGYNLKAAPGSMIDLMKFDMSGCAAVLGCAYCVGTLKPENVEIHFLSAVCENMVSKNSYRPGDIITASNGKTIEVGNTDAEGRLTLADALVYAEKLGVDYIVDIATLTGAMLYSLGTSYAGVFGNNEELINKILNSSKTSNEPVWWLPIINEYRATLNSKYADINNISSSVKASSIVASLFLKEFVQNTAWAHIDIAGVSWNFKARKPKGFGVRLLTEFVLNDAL

Aminopeptidase N = target: T3, Aminopeptidase N (Plasmodium falciparum FcB1/Columbia, UniProt O96935); experiment: malaria alanyl aminopeptidase activity blockers – biochemical, fluorogenic H-Leu-NHMec substrate, 1536-well (AID 1445); parameters: species or system Plasmodium falciparum 3D7, 3D7
T3 sequence (O96935 whole entry): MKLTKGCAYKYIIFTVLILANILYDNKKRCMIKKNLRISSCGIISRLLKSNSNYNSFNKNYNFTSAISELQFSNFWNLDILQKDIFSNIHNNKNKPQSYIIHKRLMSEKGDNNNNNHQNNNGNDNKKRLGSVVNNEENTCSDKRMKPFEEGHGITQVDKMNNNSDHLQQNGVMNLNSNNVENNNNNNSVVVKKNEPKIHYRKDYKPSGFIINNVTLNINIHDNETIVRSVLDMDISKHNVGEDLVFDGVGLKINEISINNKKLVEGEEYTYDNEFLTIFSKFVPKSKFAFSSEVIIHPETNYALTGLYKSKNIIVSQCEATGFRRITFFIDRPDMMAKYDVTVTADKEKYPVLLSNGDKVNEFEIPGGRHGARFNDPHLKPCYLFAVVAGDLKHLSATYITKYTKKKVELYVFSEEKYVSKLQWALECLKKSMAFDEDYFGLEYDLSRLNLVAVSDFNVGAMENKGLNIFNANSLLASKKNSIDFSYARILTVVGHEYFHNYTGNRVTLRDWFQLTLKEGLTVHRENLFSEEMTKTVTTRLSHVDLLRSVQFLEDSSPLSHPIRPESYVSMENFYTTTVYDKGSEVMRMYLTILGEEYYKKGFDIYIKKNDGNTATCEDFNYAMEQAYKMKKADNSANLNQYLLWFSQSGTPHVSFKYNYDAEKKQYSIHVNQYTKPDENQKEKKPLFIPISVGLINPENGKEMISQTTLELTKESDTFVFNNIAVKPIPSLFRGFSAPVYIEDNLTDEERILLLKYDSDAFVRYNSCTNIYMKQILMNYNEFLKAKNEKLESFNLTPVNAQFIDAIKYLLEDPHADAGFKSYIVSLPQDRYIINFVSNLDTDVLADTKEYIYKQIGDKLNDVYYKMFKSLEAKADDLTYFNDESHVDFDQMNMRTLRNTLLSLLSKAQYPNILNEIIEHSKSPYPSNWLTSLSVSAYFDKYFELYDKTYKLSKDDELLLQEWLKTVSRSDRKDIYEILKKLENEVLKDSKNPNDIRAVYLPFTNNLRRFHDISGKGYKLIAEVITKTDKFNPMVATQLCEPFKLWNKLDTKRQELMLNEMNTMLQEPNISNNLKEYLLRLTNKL

T1 sequence (P10145 whole entry): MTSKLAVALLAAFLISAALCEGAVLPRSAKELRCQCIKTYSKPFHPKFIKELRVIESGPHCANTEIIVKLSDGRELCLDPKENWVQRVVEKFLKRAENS

Cc1ccccc1C(=O)N1CCN(c2ccc(NC(=O)CSc3ccc(Cl)cc3)cc2)CC1
AC50 [1]: 38.8 µM (active) | AC50 [2]: 44.1 µM (active) | AC50 [3]: 6.91 µM (active) | AC50 [4]: 4.23 µM (active) | AC50 [5]: 25.2 µM (active) | AC50 (HEK293): 0.378 µM (active) | IC50 (Interleukin-8 [6]): 1.6 µM (active) | IC50 (Interleukin-8 [7]): 39.9 µM (inactive)

O=C(Cc1ccsc1-c1ccccc1)NO
IC50 [8]: 1.4 µM (active) | IC50 (Leucine aminopeptidase): 43.4 µM (active) | IC50 (Aminopeptidase N): 10.4 µM (active)
